Like-named read-outs stand apart in the source and are kept apart here.
Columns and labels:
MOLM13 cells = test: Stroma-protecting model: proliferation in HS-5 conditional medium or normal medium; assay type: cell-based; conditions: Homo sapiens
Description: At the indicated time point, cell viability was evaluated by MTT assay.
(A) Indicated FLT3 mutations were expressed in BaF3 cells respectively. […] The autophosphorylation level of FLT3 was visualized and compared by western blot analysis. […] The CM was prepared from HS-5 cell culture for 4 days under routine culture conditions, clarified by centrifugation, and used immediately. The CM was added to complete medium at a final concentration of 40%. Cell viabilities were measured by MTT assay. Data were shown as mean±SD. […] The FLT3 phosphorylation levels of FLT3, STAT5 and ERK 1/2 were determined by Western blot.
On the other hand, the bone marrow stroma-protecting environment containing a number of cytokines (e.g. FLT3 ligand, stromal derived factor-1, etc) could also decrease the drug efficacy of FLT3 inhibitors by activating FLT3 or its downstream effectors and building cross-talk between leukemic blasts and bone marrow microenvironment, [35].

U937 = test: Cell proliferation MTT assay; assay type: cell-based; conditions: Homo sapiens, U-937, 72 h, wild-type FLT3, read-out: Human leukemia cell line IC50 U937
Description: (§1) The conditional medium (CM) was prepared from the supernatant of HS-5 cell culture for 5 days under normal culture conditions. At the indicated time point, cell viability was evaluated by MTT assay.

THP-1 = test: Cell proliferation MTT assay; assay type: cell-based; conditions: Homo sapiens, 72 h, wild-type FLT3, read-out: Human leukemia cell line IC50 THP-1
Description: as §1

MOLM13 = test: Cell proliferation MTT assay; assay type: cell-based; conditions: Homo sapiens, MOLM-13, 72 h, read-out: Human leukemia cell line IC50 MOLM13
Description: as §1

MV4-11 = test: Cell proliferation MTT assay; assay type: cell-based; conditions: Homo sapiens, 72 h, read-out: Human leukemia cell line IC50 MV4-11
Description: as §1

ERK1 = molecular target: T1, ERK1 (Homo sapiens, UniProt P27361); test: Kinase inhibition assay (Reaction Biology); assay type: biochemical; conditions: 10 μM ATP, 10-dose IC50 mode
T1 construct: purchased Reaction Biology Corporation (PA, USA)

[1] = tested on: BaF3 cells with FLT3-ITD/Y842C; test: Cell viability of transformed BaF3 cells; assay type: cell-based, murine; conditions: Mus musculus, read-out: BaF3 cells with FLT3 mutants IC50 ITD-Y842C
Description: (§2) Lentivirus packaging and construction of transformed BaF3 cells were performed as described previously. […] Supernatants were collected and used to infect BaF3 cells, and transduced BaF3 cells were selected with puromycin (1 μg/ml) to obtain stably transformed cells.
as §1

[2] = tested on: BaF3 cells with FLT3-ITD/D835Y; test: Cell viability of transformed BaF3 cells; assay type: cell-based, murine; conditions: Mus musculus, BaF3; cell viability; read-out: BaF3 cells with FLT3 mutants IC50 ITD-D835Y
Description: as §2, §1

[3] = tested on: BaF3 cells with FLT3-ITD/F691L; test: Cell viability of transformed BaF3 cells; assay type: cell-based, murine; conditions: Mus musculus, read-out: BaF3 cells with FLT3 mutants IC50 ITD-F691L
Description: as §2, §1

[4] = tested on: BaF3 cells with FLT3-ITD/N676D; test: Cell viability of transformed BaF3 cells; assay type: cell-based, murine; conditions: Mus musculus, read-out: BaF3 cells with FLT3 mutants IC50 ITD-N676D
Description: as §2, §1

[5] = tested on: BaF3 cells with FLT3-D835Y; test: Cell viability of transformed BaF3 cells; assay type: cell-based, murine; conditions: Mus musculus, read-out: BaF3 cells with FLT3 mutants IC50 D835Y
Description: as §2, §1

BaF3 cells with FLT3-ITD = test: Cell viability of transformed BaF3 cells; assay type: cell-based, murine; conditions: Mus musculus, read-out: BaF3 cells with FLT3 mutants IC50 ITD
Description: as §2, §1

MV4-11 cells = test: Bone marrow engrafted model, survival; assay type: in vivo, NOD-SCID mice; conditions: MV4-11 bone marrow engraftment; LT-171-861 10 mg/kg every other day, sorafenib orally every day
Description: Six-week-old female NOD-SCID mice were treated with sub-lethal dose radiation (1.8 Gy) before intravenous injection of MV4-11 cells (5×10^6) or MOLM13 cells (5×10^6).
Data were shown as mean±SD. […] Data were shown as mean±SD. (C) An engrafted tumor model was used to evaluate in vivo antitumor activity. The NOD/SCID mice were intravenously inoculated with MV4-11 cells. […] Log-rank testing was used to compare survival curves among treatment groups. […] (D) Apoptotic assays in engraft model were evaluated by TUNEL assay and cell proliferative activity was measured by Ki67 assay. Images were acquired at ×40 magnification. (E) BALB/c nude mice were subcutaneously inoculated with MV4-11 cells (5×10^6) and bodyweight of each mouse was recorded every other day. (F) Representative photo of tumors from BALB/c nude mice which were inoculated with MV4-11 cells. (G) BALB/c nude mice were subcutaneously inoculated with BaF3 cells bearing FLT3-ITD-N676D (n=6) and FLT3-ITD-F691L (n=6) respectively. […] (H) BALB/c mice were intravenously inoculated with cells used in (G). […] Log-rank testing was used to compare survival curves among treatment groups. […] (I) Representative photos of spleens dissected from mice in (H) inoculated with BaF3 cells bearing FLT-3-ITD-F691L.
Mice that received vehicle treatment died within 30 days after intravenous injection of MV4-11 cells.

T1 sequence (P27361 whole entry): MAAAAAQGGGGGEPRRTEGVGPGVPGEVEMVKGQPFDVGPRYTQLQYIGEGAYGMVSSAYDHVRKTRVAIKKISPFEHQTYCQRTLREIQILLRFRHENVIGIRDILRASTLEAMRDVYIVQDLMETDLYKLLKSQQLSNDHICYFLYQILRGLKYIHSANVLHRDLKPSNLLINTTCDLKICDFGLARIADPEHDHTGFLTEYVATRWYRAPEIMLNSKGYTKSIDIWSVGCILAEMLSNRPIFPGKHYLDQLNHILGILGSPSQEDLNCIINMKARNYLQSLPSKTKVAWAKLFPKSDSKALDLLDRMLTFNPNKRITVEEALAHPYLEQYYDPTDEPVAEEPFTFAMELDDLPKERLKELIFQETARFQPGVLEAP

Question: With CC(C)(C)c1cc(NC(=O)Nc2ccc(-c3cn4c(n3)sc3cc(OCCN5CCOCC5)ccc34)cc2)no1 [AC220] as the molecule, how does the IC50 (MOLM13 cells; MOLM-13, 72 h, read-out: IC50 proliferation of MOLM13 cells in CM) read?
Answer: 116 nM

Question: What about the IC50 (MOLM13 cells; MOLM-13, 72 h, read-out: IC50 proliferation of MOLM13 cells in NM) of the same molecule?
Answer: 14.1 nM

Question: What about the IC50 (U937) of the same molecule?
Answer: > 1000 nM

Question: What about the IC50 (THP-1) of the same molecule?
Answer: > 1000 nM

Question: And the IC50 (MOLM13)?
Answer: 1.2 nM

Question: What about the IC50 (MV4-11) of the same molecule?
Answer: 1.5 nM

Question: How did the IC50 (ERK1) turn out when O=C(Nc1ccc2[nH]nc(-c3ccncc3)c2c1)[C@@H]1CCN(CC(=O)N2CCN(c3ccc(-c4ncccn4)cc3)CC2)C1 [SCH772984, reference compound] was run?
Answer: 4.9 nM

Question: Which results are given for CNC(=O)c1cc(Oc2ccc(NC(=O)Nc3ccc(Cl)c(C(F)(F)F)c3)cc2)ccn1 [Sorafenib, reference compound]?
Answer: IC50 [1]: 346 nM; IC50 [2]: 878 nM; IC50 [3]: 45.2 nM; IC50 [4]: 103 nM; IC50 [5]: 235 nM; IC50 (BaF3 cells with FLT3-ITD): 13.2 nM; survival versus vehicle (MV4-11 cells): increased survival rates; IC50 (MOLM13 cells; MOLM-13, HS-5 conditional medium (CM) 40%, 72 h, MTT, read-out: IC50 proliferation of MOLM13 cells in CM): 1460 nM; IC50 (MOLM13 cells; MOLM-13, normal medium (NM), 72 h, MTT, read-out: IC50 proliferation of MOLM13 cells in NM): 11.3 nM; IC50 (U937): > 1000 nM; IC50 (THP-1): > 1000 nM; IC50 (MOLM13): 5.3 nM; IC50 (MV4-11): 3.2 nM

Source: publication PMC7681098 (Theranostics, 2021)
